Reference: patent US20210379056A1, “SUBSTITUTED PYRAZOLE FUSED RING DERIVATIVE, PREPARATION METHOD THEREFOR, AND APPLICATION THEREOF” (Applied Pharmaceutical Science, Inc., priority 2018, published 2021)
Counter-ions that a name gives are not always drawn.

Tests used:
[1] = system: RET wild-type, mutant and/or fusion-type; assay: Overall statement on RET inhibitory activity (summary of Table 3); details: statement in words summarising Table 3
From the text: As shown in the above table, the example compounds of the present disclosure have improved inhibitory activity against RET wild-type, mutant and/or fusion-type.

[2] = target: T1, Ret wt (Homo sapiens, UniProt P07949); assay: HTRF kinase activity test, RET wild type; assay type: biochemical; details: Table 3; read-out: RET Enzyme (wild type) IC50
T1 construct: purchased Invitrogen PV3082
T1 sequence (P07949 29-1114): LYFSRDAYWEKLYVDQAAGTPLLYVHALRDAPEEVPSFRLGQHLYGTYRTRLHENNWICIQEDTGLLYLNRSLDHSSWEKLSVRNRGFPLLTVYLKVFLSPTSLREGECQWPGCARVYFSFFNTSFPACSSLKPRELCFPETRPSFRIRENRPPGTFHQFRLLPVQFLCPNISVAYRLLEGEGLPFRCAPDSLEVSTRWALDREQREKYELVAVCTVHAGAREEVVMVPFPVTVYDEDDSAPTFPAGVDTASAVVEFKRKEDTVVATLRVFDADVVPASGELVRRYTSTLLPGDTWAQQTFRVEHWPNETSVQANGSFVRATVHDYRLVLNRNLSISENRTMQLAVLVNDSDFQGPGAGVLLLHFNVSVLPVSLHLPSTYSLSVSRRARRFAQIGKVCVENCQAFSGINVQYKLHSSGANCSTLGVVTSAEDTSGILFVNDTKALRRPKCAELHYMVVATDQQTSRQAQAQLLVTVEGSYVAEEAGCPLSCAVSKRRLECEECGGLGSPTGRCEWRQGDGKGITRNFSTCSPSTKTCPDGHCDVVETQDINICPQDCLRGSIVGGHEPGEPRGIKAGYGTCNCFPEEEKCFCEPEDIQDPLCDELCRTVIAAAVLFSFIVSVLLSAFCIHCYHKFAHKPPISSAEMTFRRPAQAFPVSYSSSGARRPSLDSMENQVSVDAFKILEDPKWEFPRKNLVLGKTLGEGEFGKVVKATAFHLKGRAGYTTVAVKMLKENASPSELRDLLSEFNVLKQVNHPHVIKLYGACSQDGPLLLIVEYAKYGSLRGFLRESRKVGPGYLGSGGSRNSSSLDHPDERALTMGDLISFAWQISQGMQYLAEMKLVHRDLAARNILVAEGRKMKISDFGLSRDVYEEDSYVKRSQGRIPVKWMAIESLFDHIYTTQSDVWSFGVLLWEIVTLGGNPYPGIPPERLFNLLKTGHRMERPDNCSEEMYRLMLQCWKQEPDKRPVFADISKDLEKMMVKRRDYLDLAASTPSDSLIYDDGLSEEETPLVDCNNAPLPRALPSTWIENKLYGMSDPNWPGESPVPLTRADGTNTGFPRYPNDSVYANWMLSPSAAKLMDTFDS
Protocol: This test combined peptide substrates and a single proprietary monoclonal antibody with HTRF technology, which was a highly sensitive and stable technology for detecting molecular interactions of proteins. The enzyme phosphorylates the substrate, then the Eu-labeled antibody binds to the phosphorylated substrate, and streptavidin-XL665 binds to all substrates. The TR-FRET signal was generated by the HTRF principle. […] Based on this, the inhibitory effect was evaluated.
(§1) The other compounds were diluted 3-fold gradiently with DMSO from the 10 mM stock solution to a total of 10 concentrations respectively.
(§2) Adding 4 volumes of distilled water to 1 volume of enzyme buffer 5×; 5 mM MgCl2; 1 mM DTT.
(§3) b) centrifuging the compound plate for 1 minute at 1000 g.
(§4) c) sealing the test board.
(§5) f) adding 4 μl of 1× kinase buffer to each well of the test plate, centrifuging the sample plate at 1000 g for 30 seconds, and placing it at room temperature for 10 minutes.
(§6) g) preparing a solution of 5× TK-substrate-biotin ([…]) in kinase buffer and 5×ATP (50 μM) in kinase buffer respectively.
(§7) h) starting the reaction by adding 2 μl STK-substrate-biotin and 2 μl ATP (prepared in the step g).
(§8) i) centrifuging the sample plate for 30 seconds at 1000 g. Sealing the test board and placing it at room temperature for 30 minutes.
(§9) ) centrifuging at 1000 g for 30 seconds and placing it at room temperature for 1 hour.
(§10) The inhibition rate % was calculated as follows:
(§11) Inhibition rate %=[1−(fluorescence signal value of test compound−fluorescence signal value of positive control)/(average ratio of negative control−average ratio of positive control)]*100%
(§12) Ratio: generated from the measured fluorescence signal value
(§13) The average ratio of the positive control is the average ratio of the positive control (200 nM AT13148) in the sample plate;
(§14) The average ratio of negative controls is the average ratio of negative controls (0.1% DMSO) in the sample plate.
(§15) GraphPad 6.0 was used to fit the logarithm of the % inhibition rate and the compound concentration into a nonlinear regression (dose response−variable slope) to calculate the IC50 value.

[3] = system: TT Cell; assay: Cell inhibitory activity test (CCK8); assay type: cell-based; details: Homo sapiens, TT, Table 3, 72 hours incubation
Protocol: Cell Inhibitory Activity Test
1. preparing 90 μl of cell suspension in a 96-well plate with 4000 cells/well. Pre-incubating the culture plate in an incubator for 24 hours (37° C., 5% CO2).
2. adding 10 μl of test compounds of different concentrations to each well of cells, and each compound has multiple wells.
3. incubating the culture plate in the incubator for 72 hours.
4. adding 10 μl of CCK8 solution to each well (be careful not to generate bubbles in the well, otherwise they would affect the reading of the OD value).
5. incubating the culture plate in the incubator for 1-2 hours.
6. measuring the absorbance at 450 nm with a microplate reader.
7. according to the compound concentration and absorbance value, GraphpadPrism software was used to calculate the IC50 of each compound.

[4] = target: T2, RET (V804M) (Homo sapiens, UniProt P07949, V804M); assay: HTRF kinase activity test, RET V804M; assay type: biochemical; details: Table 3; read-out: RET Enzyme (V804M) IC50
T2 construct: purchased Signalchem R02-12GG
T2 sequence (P07949 29-1114 V804M): as the sequence (P07949 29-1114) above, with V776M counted along it
Protocol: This test combined peptide substrates and a single proprietary monoclonal antibody with HTRF technology, which was a highly sensitive and stable technology for detecting molecular interactions of proteins. The enzyme phosphorylates the substrate, then the Eu-labeled antibody binds to the phosphorylated substrate, and streptavidin-XL665 binds to all substrates. The TR-FRET signal was generated by the HTRF principle. Once the inhibitor (test compound) was added, a weaker TR-FRET signal is obtained. Based on this, the inhibitory effect was evaluated.
as §1, §2
a) Transferring 10 nl of the compound dilution (prepared in 5.2) to each well of the test plate (784075, Greiner);
as §3, §4
d) preparing 5×Ret wt (0.2 ng/μl) and 5×Ret V804L (0.5 ng/μl)/5×Ret V804M (0.5 ng/μl) in 1× kinase buffer respectively.
e) adding 2 μl of 5×Ret wt or 2 μl of Ret V804L/RET V804M to a 384-well test plate (784075, Greiner).
as §5, §6, §7, §8
j) preparing 4×Sa-XL 665 (250 nM) in HTRF detection buffer.
k) adding 5 μl of Sa-XL 665 and 5 μl of TK-antibody-Cryptate (prepared in the step i) to each well of the test plate.
as §9
m) reading the fluorescence signal values at 615 nm (Cryptate) and 665 nm (XL665) on the Envision 2104 plate reader.
Calculating the ratio of each hole (665 nm/615 nm).
as §10, §11, §12, §13, §14, §15

Compound	inhibitory activity against RET wild-type, mutant and/or fusion-type [1]	IC50 [2] [nM]	IC50 [3] [nM]	IC50 [4] [nM]
COc1cccc(CN2CCN(c3ccc(-c4cc(-c5cnn(C)c5)cn5nc(N)c(C#N)c45)cn3)CC2)c1 [APS026, 2-amino-4-(6-(4-(3-methoxybenzyl)piperazin-1-yl)pyridin-3-yl)-6-(1-methyl-1H-pyrazole-4-yl)pyrazolo[1,5-a]pyridine-3-carbonitrile]	excellent activity	1.4	18.1	
Cn1cc(-c2cc(-c3ccc(N4CCN(Cc5ccccc5Cl)CC4)nc3)c3c(C#N)c(N)nn3c2)cn1 [APS027, 2-amino-4-(6-(4-(2-chlorobenzyl)piperazin-1-yl)pyridin-3-yl)-6-(1-methyl-1H-pyrazol-4-yl) pyrazolo[1,5-a]pyridine-3-carbonitrile]	excellent activity	2.4	85.7	
Cn1cc(-c2cc(-c3ccc(N4CCN(Cc5ccccn5)CC4)nc3)c3c(C#N)c(N)nn3c2)cn1 [APS035, 2-amino-6-(1-methyl-1H-pyrazol-4-yl)-4-(6-(4-(4-(pyridin-2-yl)methyl)piperazin-1-yl)pyridin-3-yl)pyrazolo[1,5-a]pyridine-3-carbonitrile]	excellent activity	1.7	65.4	
Cn1cc(-c2cc(-c3ccc(N4CC5CC(C4)N5Cc4ccccn4)nc3)c3c(C#N)c(N)nn3c2)cn1 [APS038, 2-amino-6-(1-methyl-1H-pyrazol-4-yl)-4-(6-(6-(pyridin-2-yl-methyl)-3,6-diazabicyclo[3.1.1]heptan-3-yl)pyridin-3-yl)pyrazolo[1,5-a]pyridine-3-carbonitrile]	excellent activity	1	37.7	
COc1ccc(CN2C3CC2CN(c2cnc(-c4cc(OC[C@@H]5CNCCO5)cn5nc(N)c(C#N)c45)cn2)C3)cn1 [APS087, 2-amino-4-(5-(6-((6-methoxypyridin-3-yl)methyl)-3,6-diazabicyclo[3.1.1]heptan-3-yl)pyrazin-2-yl)-6-(((S)-morpholin-2-yl)methoxy)pyrazolo[1,5-a]pyridine-3-carbonitrile trifluoroacetate]	excellent activity	< 1	< 1	< 1
COc1ccc(CN2C3CC2CN(c2ccc(-c4cc(OCC(C)(C)O)cn5nc(N)c(C#N)c45)cn2)C3)cn1 [APS089]	excellent activity	1.8	18.6	1.6
COc1ccc(CN2C3CC2CN(c2ccc(-c4cc(OCC(C)(C)O)cn5nc(F)c(C#N)c45)cn2)C3)cn1 [APS090]		54	31.4	486
COc1ccc(CN2C3CC2CN(c2ccc(-c4cc(OCC(C)(C)O)cn5nc(OC)c(C#N)c45)cn2)C3)cn1 [APS091, 6-(2-hydroxy-2-methylpropoxy)-2-methoxy-4-(6-(6-((6-methoxypyridin-3-yl)methyl)-3,6-diazabicyclo[3.1.1]heptan-3-yl)pyridin-3-yl)pyrazolo[1,5-a]pyridine-3-carbonitrile]				957
CCOc1cc(-c2cnc(N3CC4CC(C3)N4Cc3ccc(OC)nc3)cn2)c2c(C#N)c(N)nn2c1 [APS092, 2-amino-6-ethoxy-4-(5-(6-((6-methoxypyridin-3-yl)methyl)-3,6-diazabicyclo[3.1.1]heptane-3-yl)pyrazin-2-yl)pyrazolo[1,5-a]pyridine-3-carbonitrile]	excellent activity	4.3	60	2.7
COc1ccc(CN2C3CC2CN(c2ccc(-c4cc(OCC(C)(C)O)cn5nc(NC(C)=O)c(C#N)c45)cn2)C3)cn1 [APS093]		2890		1550
COc1ccc(CN2C3CC2CN(c2ccc(-c4cc(OCC(C)(C)O)cn5nc(NCCO)c(C#N)c45)cn2)C3)cn1 [APS094, 6-(2-Hydroxy-2-methylpropoxy)-2-((2-2-hydroxyethyl)amino)-4-(6-(6-((6-methoxypyridine-3-yl)methyl)-3,6-diazabicyclo[3.1.1]heptan-3-yl)pyridin-3-yl)pyrazolo[1,5-a]pyridine-3-carbonitrile]		942		493
CCOc1cc(-c2ccc(N3CC4CC(C3)N4Cc3ccc(OC)nc3)nc2)c2c(C#N)c(N)nn2c1 [APS095]	excellent activity	< 1	38.6	< 1
CCOc1cc(-c2ccc(N3CC4CC(C3)N4Cc3ccc(OC)nc3)nc2)c2c(C#N)c(F)nn2c1 [APS096]		122		186
COCCOc1cc(-c2ccc(N3CC4CC(C3)N4Cc3ccc(OC)nc3)nc2)c2c(C#N)c(F)nn2c1 [APS098, 2-fluoro-6-(2-methoxyethoxy)-4-(6-(6-((6-methoxypyridin-3-yl)methyl)-3,6-diazabicyclo [3.1.1]heptan-3-yl)pyridin-3-yl)pyrazolo[1,5-a]pyridine-3-carbonitrile]		144		85.6
COCCOc1cc(-c2ccc(N3CC4CC(C3)N4Cc3ccc(OC)nc3)nc2)c2c(C#N)c(NC(C)=O)nn2c1 [APS103]		261		155
COc1ccc(CN2C3CC2CN(c2cnc(-c4cc(OC[C@@H]5CN(C)CCO5)cn5nc(F)c(C#N)c45)cn2)C3)cn1 [APS104, 2-fluoro-4-(5-(6-((6-methoxypyridin-3-yl)methyl)-3,6-diazabicyclo[3.1.1]heptan-3-yl)pyrazin-2-yl)-6-(((S)-4-methylmorpholin-2-yl)methoxy)pyrazolo[1,5-a]pyridine-3-carbonitrile]	excellent activity	6.9		14
COc1ccc(CN2C3CC2CN(c2ccc(-c4cc(OCC(C)(C)O)cn5nc(N)c(C(N)=O)c45)cn2)C3)cn1 [APS106]		745		971
COc1ccc(CN2C3CC2CN(c2ccc(-c4cc(OCC(F)F)cn5nc(N)c(C#N)c45)cn2)C3)cn1 [APS114, 2-amino-6-(2,2-difluoroethoxy)-4-(6-(6-((6-methoxypyridin-3-yl)methyl)-3,6-diazabicyclo[3.1.1]heptan-3-yl)pyridin-3-yl)pyrazolo[1,5-a]pyridine-3-carbonitrile]	excellent activity	2		< 1
COc1ccc(CN2C3CC2CN(c2ccc(-c4cc(OC(F)F)cn5nc(N)c(C#N)c45)cn2)C3)cn1 [APS115, 2-amino-6-(difluoromethoxy)-4-(6-(6-((6-methoxypyridin-3-yl)methyl)-3,6-diazabicyclo[3.1.1]heptan-3-yl)pyridin-3-yl)pyrazolo[1,5-a]pyridine-3-carbonitrile]		45.9		8.8
